Patent publication US9458188B2, “Efficient peptide couplings and their use in the synthesis and isolation of a cyclopenta (G) quinazoline trisodium salt” (BTG INTERNATIONAL LIMITED, priority 2010, dated 2016)

Legend:
[1] = Chemical stability under acidic conditions; format: physicochemical; conditions: pH 5
Procedure: The reported chemistry was carried out on a very small scale, with no detailed analysis of the purity profile of the product 1.

thymidilate synthase = conditions: read-out: IC50 for the enzyme (thymidilate synthase); cited from earlier work
[2] = biological target: T1, reduced folate carrier protein (RFCP) (Homo sapiens, UniProt P41440); conditions: not a substrate for RFCP; cited from earlier work
T1 sequence (P41440 1-591): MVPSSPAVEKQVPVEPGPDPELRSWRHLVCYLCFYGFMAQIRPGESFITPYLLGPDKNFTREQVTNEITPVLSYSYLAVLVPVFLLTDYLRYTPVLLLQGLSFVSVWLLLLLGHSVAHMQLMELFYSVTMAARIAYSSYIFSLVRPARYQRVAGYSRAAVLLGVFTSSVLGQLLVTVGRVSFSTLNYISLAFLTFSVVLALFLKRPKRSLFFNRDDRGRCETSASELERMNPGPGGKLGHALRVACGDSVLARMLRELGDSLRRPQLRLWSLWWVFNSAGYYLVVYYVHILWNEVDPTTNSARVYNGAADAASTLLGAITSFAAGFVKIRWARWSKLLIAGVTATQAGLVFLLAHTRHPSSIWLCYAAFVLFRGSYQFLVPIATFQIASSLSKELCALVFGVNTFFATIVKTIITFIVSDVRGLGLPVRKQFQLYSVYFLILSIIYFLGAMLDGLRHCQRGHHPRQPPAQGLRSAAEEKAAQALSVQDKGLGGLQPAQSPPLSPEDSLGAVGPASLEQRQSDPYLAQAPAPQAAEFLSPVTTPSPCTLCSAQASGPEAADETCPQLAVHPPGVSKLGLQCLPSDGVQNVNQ

folate receptor α (FRα) = folate receptor α (FRα) (Homo sapiens, UniProt P15328); conditions: read-out: Ki (affinity) for folate receptor α (FRα); cited from earlier work
folate receptor α (FRα), sequence (P15328 25-234, species assumed): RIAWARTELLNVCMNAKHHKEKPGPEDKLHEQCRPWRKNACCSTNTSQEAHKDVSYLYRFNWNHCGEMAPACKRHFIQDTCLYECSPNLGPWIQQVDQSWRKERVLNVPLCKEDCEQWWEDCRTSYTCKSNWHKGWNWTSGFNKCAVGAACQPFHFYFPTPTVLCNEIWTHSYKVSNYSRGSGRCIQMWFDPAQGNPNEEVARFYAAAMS

[3] = biological target: T2, polyglutamoylation synthase enzyme (Homo sapiens, UniProt Q05932); conditions: cited from earlier work
T2 sequence (Q05932 43-587): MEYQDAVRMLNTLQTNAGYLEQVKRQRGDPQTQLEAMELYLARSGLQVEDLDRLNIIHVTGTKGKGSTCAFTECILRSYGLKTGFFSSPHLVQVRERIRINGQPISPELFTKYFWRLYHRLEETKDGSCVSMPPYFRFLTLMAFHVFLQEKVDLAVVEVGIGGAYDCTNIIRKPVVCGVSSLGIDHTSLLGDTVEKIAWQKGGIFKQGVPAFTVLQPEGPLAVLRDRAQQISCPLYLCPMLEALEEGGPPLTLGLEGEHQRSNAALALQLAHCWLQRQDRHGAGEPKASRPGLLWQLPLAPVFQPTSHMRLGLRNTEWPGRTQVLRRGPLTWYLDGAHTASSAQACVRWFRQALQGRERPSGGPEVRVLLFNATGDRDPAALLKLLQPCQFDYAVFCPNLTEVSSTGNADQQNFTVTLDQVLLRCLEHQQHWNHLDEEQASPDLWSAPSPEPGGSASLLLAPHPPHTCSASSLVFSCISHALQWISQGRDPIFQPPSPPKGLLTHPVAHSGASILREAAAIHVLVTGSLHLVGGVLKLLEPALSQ

Row | Structure (SMILES) | Stability in aqueous solution [1] | IC50 (thymidilate synthase) [nM] | Ki [2] [nM] | Ki (folate receptor α (FRα)) [nM] | Substrate for the polyglutamoylation synthase enzyme [3]
1 | C#CCN(c1ccc(C(=O)N[C@@H](CCC(=O)N[C@H](CCC(=O)O)C(=O)O)C(=O)O)cc1)[C@H]1CCc2cc3nc(CO)[nH]c(=O)c3cc21 [Compound 1, (2,R)-((4,S)-carboxy-4-(4,N-(((6S)-2-(hydroxymethyl)-4-oxo-3,4,7,8-tetrahydro-3H-cyclopenta[g]quinazolin-6-yl)-N-(prop-2-ynyl)amino)benzamido)butanamido)pentanedioic acid] | limited stability |  |  |  | 
2 | C#CCN(c1ccc(C(=O)N[C@@H](CCC(=O)N[C@H](CCC(=O)[O-])C(=O)[O-])C(=O)[O-])cc1)[C@H]1CCc2cc3nc(CO)[nH]c(=O)c3cc21.[Na+].[Na+].[Na+] [Compound 2, (2,R)-((4,S)-carboxy-4-(4,N-(((6S)-2-(hydroxymethyl)-4-oxo-3,4,7,8-tetrahydro-3H-cyclopenta[g]quinazolin-6-yl)-N-(prop-2-ynyl)amino)benzamido)butanamido)pentanedioic acid trisodium salt] |  | 3 | > 250000 | 0.5 | not a substrate
